Laboratory results as given in US7915238B2, “Immunomodulatory compounds and methods of use thereof” (Eisai R & D Management Co., Ltd., priority 1999, dated 2011).
Like-named read-outs stand apart in the source and are kept apart here.

Columns and labels:
THP-1 cells = experiment: TNF-alpha promoter secreted alkaline phosphatase (TNF-PLAP) reporter in THP-1 cells; type: cell-based, human
Description: Similar results can be obtained when compounds of the invention are tested in a cell-culture model. In this assay, compounds of the invention are tested for their ability to stimulate secretion of alkaline phosphatase from THP-1 cells that have been transfected with the gene for secreted alkaline phosphatase under the control of the TNF-alpha promoter, as described in detail in Goto et al., Molecular Pharmacology 49; 860-873 (1996). In this assay, however, the effects of removing serum^1—a condition that may more-likely mimic a subcutaneous environment—can be evaluated. As shown in FIG. 2 and described in Table 1, results from these assays indicate that compounds of the invention stimulate induction of genes under the control of the TNF-alpha promoter when added to cells in the absence as well as the presence of serum. ^1 This is important to determine if serum components such as lipopolysaccharide binding protein are necessary for drug activity.

Human Whole Blood = experiment: Cytokine release in human whole blood (ELISA); type: cell-based; details: for EC50: whole blood, read-out: WB ED50 vs LPS@ 10 ng/ml; for TNF-alpha release in whole blood at 10 μM compound (% of 10 ng/ml LPS response): compounds tested at 10 μM, compared to 10 ng/ml LPS, 3-hour incubation
Description: The most readily available human system to test compound activity on monocytes/macrophages is in whole blood. Various concentrations of compounds of the invention were added as 10× stocks in 50 μl of Ca^++, Mg^++-free Hank's balanced salt solution (HBSS) followed by 50 μl of HBSS into 400 μl of heparinized whole blood obtained from normal volunteers (18-51 years old; 110-230 lb.) into the wells of plastic assay plates, for a total volume of 500 μl/well (final concentration of whole blood was 80%). After a 3-hour incubation with gentle shaking at 37° C. in a 5% CO2 atmosphere, the assay plates were centrifuged at 1000×g for 10 min. at 4° C. and plasma was drawn off and frozen at −80° C. Plasma samples were analyzed for TNF-alpha, IL-10, and IL-12 by ELISA (Genzyme Corp., Cambridge, Mass.). Each assay point was tested in triplicate.
This stimulatory activity can be compared to that of 10 ng/ml endotoxin (or LPS) present in similar incubations in the same assay.

Row | Structure (SMILES) | EC50 (Human Whole Blood; vs. % of LPS at 10 ng/ml) [µM] | further results
1 | CCCCCC/C=C\CCCC(=O)O[C@H](CCCCCCC)CCOCC(COP(=O)([O-])OCCNC(=O)CCCCCCCCC(=O)NCCOP(=O)([O-])OCC(COCC[C@@H](CCCCCCC)OC(=O)CCC/C=C\CCCCCC)NC(=O)CC(=O)CCCCCCCCCCC)NC(=O)CC(=O)CCCCCCCCCCC.[Na+].[Na+] (stereo partly shown) [compound 111231] | 0.29 | THP-1 cell Stimulation (% of compound 100 at 10 μM) +serum (THP-1 cells): 17 % of compound 100 at 10 μM
2 | CCCCCC/C=C\CCCC(=O)O[C@H](CCCCCCC)CCOCC(COP(=O)([O-])OCCNC(=O)NCCOP(=O)([O-])OCC(COCC[C@@H](CCCCCCC)OC(=O)CCC/C=C\CCCCCC)NC(=O)CC(=O)CCCCCCCCCCC)NC(=O)CC(=O)CCCCCCCCCCC.[Na+].[Na+] (stereo partly shown) [compound 111232] | – | THP-1 cell Stimulation (% of compound 100 at 10 μM) +serum (THP-1 cells): 155 % of compound 100 at 10 μM; THP-1 cell Stimulation (% of compound 100 at 10 μM) −serum (THP-1 cells): 225 % of compound 100 at 10 μM; TNF-alpha release in whole blood at 10 μM compound (% of 10 ng/ml LPS response) (Human Whole Blood): 158 % of LPS
3 | CCCCCC/C=C\CCCC(=O)O[C@H](CCCCCCC)CCOCC(COP(=O)([O-])OCCNC(=O)CCC(=O)NCCOP(=O)([O-])OCC(COCC[C@@H](CCCCCCC)OC(=O)CCC/C=C\CCCCCC)NC(=O)CC(=O)CCCCCCCCCCC)NC(=O)CC(=O)CCCCCCCCCCC.[Na+].[Na+] (stereo partly shown) [compound 111233] | – | THP-1 cell Stimulation (% of compound 100 at 10 μM) +serum (THP-1 cells): 141 % of compound 100 at 10 μM
4 | CCCCCCCCCCCC(=O)CC(=O)NC(COCC[C@@H](CCCCCCC)OC(=O)CCCCCCCCCCC)COP(=O)([O-])OCCNC(=O)NCCOP(=O)([O-])OCC(COCC[C@@H](CCCCCCC)OC(=O)CCCCCCCCCCC)NC(=O)CC(=O)CCCCCCCCCCC.[Na+].[Na+] (stereo partly shown) [compound 112066] | 0.04 | THP-1 cell Stimulation (% of compound 100 at 10 μM) +serum (THP-1 cells): 330 % of compound 100 at 10 μM; TNF-alpha release in whole blood at 10 μM compound (% of 10 ng/ml LPS response) (Human Whole Blood): 162 % of LPS
5 | CCCCCC/C=C\CCCC(=O)O[C@H](CCCCCCC)CCOCC(COP(=O)([O-])OCCNC(=O)CC(=O)NCCOP(=O)([O-])OCC(COCC[C@@H](CCCCCCC)OC(=O)CCC/C=C\CCCCCC)NC(=O)CC(=O)CCCCCCCCCCC)NC(=O)CC(=O)CCCCCCCCCCC.[Na+].[Na+] (stereo partly shown) [compound 113651] | 0.7 | THP-1 cell Stimulation (% of compound 100 at 10 μM) +serum (THP-1 cells): 215 % of compound 100 at 10 μM; THP-1 cell Stimulation (% of compound 100 at 10 μM) −serum (THP-1 cells): 254 % of compound 100 at 10 μM; TNF-alpha release in whole blood at 10 μM compound (% of 10 ng/ml LPS response) (Human Whole Blood): 133 ± 4.4 (n = 4) % of LPS
6 | CCCCCCCCCCCCCC(=O)O[C@@H](COCC[C@@H](CCCCCCC)OC(=O)CCCCCCCCCCC)COP(=O)([O-])OCCNC(=O)CC(=O)NCCOP(=O)([O-])OC[C@H](COCC[C@@H](CCCCCCC)OC(=O)CCCCCCCCCCC)OC(=O)CCCCCCCCCCCCC.[Na+].[Na+] [compound 803059] | 0.89 | TNF-alpha release in whole blood at 10 μM compound (% of 10 ng/ml LPS response) (Human Whole Blood): 2 % of LPS
7 | CCCCCCCCCCCCCC(=O)O[C@@H](COCC[C@@H](CCCCCCC)OC(=O)CCCCCCCCCCC)COP(=O)([O-])OCCNC(=O)NCCOP(=O)([O-])OC[C@H](COCC[C@@H](CCCCCCC)OC(=O)CCCCCCCCCCC)OC(=O)CCCCCCCCCCCCC.[Na+].[Na+] [compound 803592] | – | TNF-alpha release in whole blood at 10 μM compound (% of 10 ng/ml LPS response) (Human Whole Blood): 15 % of LPS
8 | CCCCCCCCCCCCCC(=O)N[C@H](COCC[C@@H](CCCCCCC)OC(=O)CCCCCCCCCCC)COP(=O)(O)OCCNC(=O)CC(=O)NCCOP(=O)(O)OC[C@H](COCC[C@@H](CCCCCCC)OC(=O)CCCCCCCCCCC)NC(=O)CCCCCCCCCCCCC [compound 803731] | > 10 | –
9 | CCCCCCCCCCCCCC(=O)N[C@H](COCC[C@@H](CCCCCCC)OC(=O)CCCCCCCCCCC)COP(=O)(O)OCCNC(=O)CC(=O)NCCOP(=O)(O)OC[C@H](COCC[C@@H](CCCCCCC)OC(=O)CCCCCCCCCCC)NC(=O)CCCCCCCCCCCCC [compound 803733] | 0.7 | –
10 | CCCCCCCCCCCCCC(=O)N[C@H](COCC[C@@H](CCCCCCC)OC(=O)CCCCCCCCCCC)COP(=O)(O)OCCNC(=O)NCCOP(=O)(O)OC[C@H](COCC[C@@H](CCCCCCC)OC(=O)CCCCCCCCCCC)NC(=O)CCCCCCCCCCCCC [compound 803789] | 0.1 | –
11 | CCCCCC/C=C\CCCC(=O)O[C@H](CCCCCCC)CCOC[C@@H](COP(=O)(O)OCCNC(=O)CC(=O)NCCOP(=O)(O)OC[C@H](COCC[C@@H](CCCCCCC)OC(=O)CCC/C=C\CCCCCC)NC(=O)CC(=O)CCCCCCCCCCC)NC(=O)CC(=O)CCCCCCCCCCC [compound 804061] | 2.5 | –
12 | CCCCCCCCCCCCCCN[C@@H](COCC[C@@H](CCCCCCC)OC(=O)CCCCCCCCCCC)COP(=O)(O)OCCNC(=O)NCCOP(=O)(O)OC[C@H](COCC[C@@H](CCCCCCC)OC(=O)CCCCCCCCCCC)NCCCCCCCCCCCCCC [compound 804252] | – | EC50 (Human Whole Blood; (576-021) + EtOH): 0.4 µM
13 | CCCCCCCCCCCCCC(=O)N[C@@H](CC[N+](C)(C)CCCNC(=O)NCCC[N+](C)(C)CC[C@@H](COC(=O)C[C@@H](CCCCCCC)OC(=O)CCCCCCCCCCC)NC(=O)CCCCCCCCCCCCC)COC(=O)C[C@@H](CCCCCCC)OC(=O)CCCCCCCCCCC [compound 804947] | – | EC50 (Human Whole Blood; Homo sapiens, vs. % of LPS at 10 ng/ml): > 10 µM

Second part, led by results:

Row | EC50 (Human Whole Blood; vs. % of LPS at 10 ng/ml) [µM] | Structure (SMILES) | further results
14 | 0.3 | CCCCCCCCCCCC(=O)CC(=O)N[C@H](COCC[C@@H](CCCCCCC)OC(=O)CCCCCCCCCCC)COP(=O)(O)OCCNC(=O)NCCOP(=O)(O)OC[C@H](COCC[C@@H](CCCCCCC)OC(=O)CCCCCCCCCCC)NC(=O)CC(=O)CCCCCCCCCCC [compound 804097] | –
15 | 0.46 | CCCCCCCCCCCCCC(=O)N[C@H](COCC[C@H](CCCCCCC)CCCCCCCCCCCC)COP(=O)(O)OCCNC(=O)NCCOP(=O)(O)OC[C@@H](COCC[C@H](CCCCCCC)CCCCCCCCCCCC)NC(=O)CCCCCCCCCCCCC [compound 804121] | –
16 | 0.66 | CCCCCCCCCCCCCC(=O)N[C@H](COCC[C@H](CCCCCCC)CCCCCCCCCCCC)COP(=O)(O)OCCNC(=O)NCCOP(=O)(O)OC[C@@H](COCC[C@H](CCCCCCC)CCCCCCCCCCCC)NC(=O)CCCCCCCCCCCCC [compound 804130] | –
17 | 2.2 | CCCCCCCCCCCC(=O)NCC(=O)N[C@H](COCC[C@@H](CCCCCCC)OC(=O)CCCCCCCCCCC)COP(=O)(O)OCCNC(=O)NCCOP(=O)(O)OC[C@@H](COCC[C@@H](CCCCCCC)OC(=O)CCCCCCCCCCC)NC(=O)CNC(=O)CCCCCCCCCCC [compound 804221] | –
18 | > 10 | CCCCCCCCCCCCCC(=O)N[C@H](COCC[C@H](CCCCCCC)NC(=O)CCCCCCCCCCC)COP(=O)(O)OCCNC(=O)NCCOP(=O)(O)OC[C@@H](COCC[C@H](CCCCCCC)NC(=O)CCCCCCCCCCC)NC(=O)CCCCCCCCCCCCC [compound 804253] | –
19 | 0.45 | CCCCCCCCCCCCCCN[C@H](COCC[C@@H](CCCCCCC)OC(=O)CCCCCCCCCCC)COP(=O)(O)OCCNC(=O)NCCOP(=O)(O)OC[C@@H](COCC[C@@H](CCCCCCC)OC(=O)CCCCCCCCCCC)NCCCCCCCCCCCCCC [compound 804281] | –
20 | 0.014 | CCCCCCCCCCCCC(O)C(=O)N[C@H](COCC[C@@H](CCCCCCC)OC(=O)CCCCCCCCCCC)COP(=O)(O)OCCNC(=O)NCCOP(=O)(O)OC[C@@H](COCC[C@@H](CCCCCCC)OC(=O)CCCCCCCCCCC)NC(=O)C(O)CCCCCCCCCCCC (stereo partly shown) [compound 804313] | –
21 | 1.06 | CCCCCCCCCCCCCCN(C(C)=O)[C@H](COCC[C@@H](CCCCCCC)OC(=O)CCCCCCCCCCC)COP(=O)(O)OCCNC(=O)NCCOP(=O)(O)OC[C@@H](COCC[C@@H](CCCCCCC)OC(=O)CCCCCCCCCCC)N(CCCCCCCCCCCCCC)C(C)=O [compound 804339] | –
22 | 0.4 | CCCCCCCCCCCCCC(=O)N[C@H](COCC[C@@H](CCCCCCC)OCCCCCCCCCCCC)COP(=O)(O)OCCNC(=O)NCCOP(=O)(O)OC[C@@H](COCC[C@@H](CCCCCCC)OCCCCCCCCCCCC)NC(=O)CCCCCCCCCCCCC [compound 804372] | –
